Here are results for 11 compounds from ChEMBL document CHEMBL1201862, “PubChem BioAssay data set” (2004).

Among the test systems are IGROV-1; MOLT-4; NCI-H23; U-251; OVCAR-4; SK-MEL-5; RXF 393; SF-295; OVCAR-8; COLO 205; SNB-75; Malme-3M; A549; SW-620; OVCAR-5; HL-60; UACC-62; NCI-H522; M14; SR.
Common to all, as to assay: NCI tumour cell line growth inhibition, 48 h

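Growth conditions: 96-well plates. Treatment: test compound, 48 hours, 5 concentrations. Analysis: linear interpolation between bracketing concentrations; unreached endpoints set to highest concentration. Abbreviation: GI50, concentration required for 50% inhibition of growth.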 The source made the active and inactive calls. No stated cut-off is given here; in the data, active = GI50 up to about 1.1 µM and inactive = higher.

For the compound `Cc1c2ccncc2c(C)c2c1[nH]c1ccc(OCCN(C)C)cc12`, the GI50 in the test with IGROV-1 was 0.388 µM (active); in the test with MOLT-4, 0.0193 µM (active); with NCI-H23, 0.416 µM (active); with U-251, 0.209 µM (active); in the test on OVCAR-4, 0.135 µM (active); in the test on SK-MEL-5 it was 1.35 µM (inactive). Also, the GI50 in the test on RXF 393 is 0.265 µM (active); in the test with SF-295 it was 0.125 µM (active); in the test with OVCAR-8, 0.112 µM (active); with COLO 205, 0.357 µM (active); in the test with SNB-75, 0.47 µM (active); in the test with Malme-3M it was 1.16 µM (inactive). For the same compound, the GI50 in the test with A549 was 0.198 µM (active); in the test on SW-620 it was 0.0353 µM (active); with OVCAR-5 it was 0.433 µM (active); in the test on HL-60, 0.136 µM (active); in the test on UACC-62, 0.729 µM (active); in the test on NCI-H522, 0.391 µM (active).

Regarding `COC1(O)c2cccc(Cl)c2C(=O)N1C1(C(N)=O)CCCCC1` (stereo not drawn), the GI50 in the test with IGROV-1 is > 100 µM (inactive); in the test on MOLT-4, > 100 µM (inactive); in the test on NCI-H23, > 37.5 µM (inactive); with U-251, > 100 µM (inactive); with OVCAR-4 it was > 100 µM (inactive); in the test on SK-MEL-5 it was > 100 µM (inactive). Besides, the GI50 in the test with RXF 393, in the test on SF-295, in the test on OVCAR-8, in the test with COLO 205, in the test on SNB-75 and with Malme-3M was > 100 µM (inactive) in each case. In addition, the GI50 with A549, in the test with SW-620, in the test with OVCAR-5, in the test on HL-60, in the test with UACC-62 and with NCI-H522 was > 100 µM (inactive) in each case.

For `CCN(CC)c1c(C(=O)/C=C/c2ccc(Cl)cc2)c(-c2ccccc2)nn(C)c1=O`, the GI50 is 2.03 µM (inactive) in the test with IGROV-1; 2.12 µM (inactive) with MOLT-4; 1.68 µM (inactive) with NCI-H23; 1.76 µM (inactive) in the test with U-251; 1.66 µM (inactive) with OVCAR-4; 2.08 µM (inactive) in the test on M14. Moreover, the GI50 in the test on SK-MEL-5 was 1.72 µM (inactive); with RXF 393, 1.47 µM (inactive); with SF-295 it was 1.85 µM (inactive); with OVCAR-8, 1.64 µM (inactive); with COLO 205, 2.03 µM (inactive); in the test with SNB-75, 2.97 µM (inactive). The GI50 was 2.22 µM (inactive) with Malme-3M; 1.92 µM (inactive) with A549; 2.16 µM (inactive) in the test on SW-620; 1.74 µM (inactive) with OVCAR-5; 1.19 µM (inactive) in the test with HL-60; 1.71 µM (inactive) in the test on UACC-62. Moreover, the GI50 with NCI-H522 was 1.59 µM (inactive).

Regarding `O=C(O)C(SC(=S)c1ccc(C(=S)SC(C(=O)O)c2ccccc2)cc1)c1ccccc1` (stereo not drawn), the GI50 with IGROV-1, with MOLT-4, in the test with NCI-H23, with U-251, with M14 and in the test on SK-MEL-5 was > 100 µM (inactive) each time. Also, the GI50 in the test on RXF 393 was > 100 µM (inactive); in the test on SF-295 it was > 100 µM (inactive); in the test on OVCAR-8, > 100 µM (inactive); with SNB-75, 35 µM (inactive); with Malme-3M, > 100 µM (inactive); in the test on SR it was > 100 µM (inactive). Besides, the GI50 in the test with A549 was > 100 µM (inactive); in the test with SW-620, > 100 µM (inactive); in the test with OVCAR-5, > 100 µM (inactive); in the test on HL-60 it was > 100 µM (inactive); with UACC-62, 47.3 µM (inactive).

As for `C1CCCCc2nc3c(nc2CCC1)c1nc2c(nc1c1nc4c(nc31)CCCCCCCC4)CCCCCCCC2`, the GI50 in the test on IGROV-1, with MOLT-4, with NCI-H23, in the test on U-251, in the test with M14 and with SF-295 was > 100 µM (inactive) each time. Moreover, the GI50 in the test on OVCAR-8, with COLO 205, in the test on SNB-75, in the test with Malme-3M, in the test with SR and in the test with A549 was > 100 µM (inactive) throughout. The GI50 with SW-620, with OVCAR-5, with HL-60 and with UACC-62 was > 100 µM (inactive) throughout.

`CC1SC2=NC3=C(c4ccccc4C3=O)C(c3ccccc3Cl)N2C1=O` (stereo not drawn): the GI50 with IGROV-1 is > 100 µM (inactive); in the test with MOLT-4, 75 µM (inactive); in the test on NCI-H23, 85.7 µM (inactive); with U-251 it was > 100 µM (inactive); in the test on OVCAR-4, 86.1 µM (inactive); with M14 it was > 100 µM (inactive). Besides, the GI50 in the test on SK-MEL-5 is > 100 µM (inactive); with SF-295 it was > 100 µM (inactive); in the test on OVCAR-8 it was > 100 µM (inactive); in the test on COLO 205, > 100 µM (inactive); with SNB-75 it was 63 µM (inactive); in the test with Malme-3M it was > 100 µM (inactive). In addition, the GI50 in the test with A549 is > 100 µM (inactive); in the test with SW-620 it was > 100 µM (inactive); with OVCAR-5 it was > 100 µM (inactive); in the test with HL-60, > 100 µM (inactive); in the test with UACC-62, 80.2 µM (inactive); in the test with NCI-H522, 30.8 µM (inactive).

For `C[Si](C)(N[Si](C)(C)OCCc1ccccc1)OCCc1ccccc1`, the GI50 in the test on IGROV-1, in the test on NCI-H23, in the test with U-251, in the test on OVCAR-4, in the test with M14 and with SK-MEL-5 was > 100 µM (inactive) each time. Also, the GI50 in the test with RXF 393, with SF-295, in the test on OVCAR-8, in the test with SNB-75, in the test on SW-620 and with OVCAR-5 was > 100 µM (inactive) throughout. For the same compound, the GI50 with HL-60 and in the test on UACC-62 was > 100 µM (inactive) throughout.

In the case of `COc1ccc(Nc2cnc3cc(N)ccc3n2)cc1OC`, the GI50 with IGROV-1 was > 100 µM (inactive); in the test with MOLT-4, 36.5 µM (inactive); with NCI-H23, 26.9 µM (inactive); in the test on U-251 it was 40.7 µM (inactive); with M14 it was > 100 µM (inactive); in the test with SK-MEL-5, 49.9 µM (inactive). Moreover, the GI50 in the test with RXF 393 was > 100 µM (inactive); in the test with SF-295, 34.3 µM (inactive); in the test with OVCAR-8, 37.4 µM (inactive); in the test with COLO 205, > 100 µM (inactive); in the test on SNB-75 it was > 100 µM (inactive); in the test with Malme-3M, > 100 µM (inactive). For the same compound, the GI50 was 33.7 µM (inactive) in the test on SR; > 100 µM (inactive) with SW-620; > 100 µM (inactive) with OVCAR-5; 26.7 µM (inactive) in the test with HL-60; 72.3 µM (inactive) in the test on UACC-62.

With `COc1ccc(-c2cc(N3CCN(c4ccccc4)CC3)c(C#N)c(=O)o2)cc1`, the GI50 in the test with IGROV-1 is 24.8 µM (inactive); in the test with MOLT-4 it was > 100 µM (inactive); in the test on NCI-H23, 47.6 µM (inactive); with U-251, 37.6 µM (inactive); in the test with OVCAR-4 it was 4.59 µM (inactive); with M14, > 100 µM (inactive). Besides, the GI50 was 36.4 µM (inactive) with SK-MEL-5; 13.7 µM (inactive) in the test on RXF 393; 14.3 µM (inactive) with SF-295; 20.7 µM (inactive) with OVCAR-8; > 100 µM (inactive) in the test with COLO 205; 7.41 µM (inactive) in the test on SNB-75. The GI50 was 19.4 µM (inactive) in the test on Malme-3M; > 100 µM (inactive) in the test on SR; 21.2 µM (inactive) in the test on A549; 42 µM (inactive) in the test with SW-620; > 100 µM (inactive) with OVCAR-5; 60.7 µM (inactive) in the test on HL-60.

On to `C/C(C[n+]1ccccc1)=N\N=C(N)N`, for which the GI50 with IGROV-1, with MOLT-4, in the test with NCI-H23, in the test with U-251, with OVCAR-4 and in the test with M14 was > 100 µM (inactive) each time. The GI50 with SK-MEL-5, in the test with RXF 393, with SF-295, with OVCAR-8, in the test with COLO 205 and in the test with SNB-75 was > 100 µM (inactive) throughout. Moreover, the GI50 with Malme-3M, in the test with A549, in the test on SW-620, with OVCAR-5, with HL-60 and in the test with UACC-62 was > 100 µM (inactive) in each case. In the test on NCI-H522, the GI50 is > 100 µM (inactive).

With `CC[n+]1c(-c2ccccc2)c2cc(N)ccc2c2ccc(N)cc21` [HOMIDIUM BROMIDE], the GI50 in the test on MOLT-4 was 2.36 µM (inactive); in the test with NCI-H23, 1.53 µM (inactive); with U-251, 4.38 µM (inactive); with OVCAR-4, 4.44 µM (inactive); in the test on M14 it was 13.6 µM (inactive); in the test with SK-MEL-5 it was 1.2 µM (inactive). Further, the GI50 in the test with RXF 393 is 5.68 µM (inactive); in the test on SF-295, 2.82 µM (inactive); in the test on COLO 205, 1.68 µM (inactive); in the test on SNB-75, 0.0372 µM (active); in the test with A549, 11.9 µM (inactive); in the test on SW-620 it was 3.67 µM (inactive). For the same compound, the GI50 in the test on OVCAR-5 was 15.4 µM (inactive); in the test on HL-60, 5.97 µM (inactive).
